Here are results for seven compounds from patent US6407106B1, “N-triazolylmethyl-piperazine compounds with neurokinin-receptor antagonist activity” (Solvay Pharmaceuticals GmbH, priority 2000, dated 2002).

Usually EC50 stands for the midpoint of the concentration-response curve. A higher EC50 goes with a less potent agent. A word on the Ki: it is the dissociation constant of the complex between target and ligand, obtained from inhibition or displacement.

Series [1] is described as follows: Solubility in water. Type of series: physicochemical.
Series [2] addresses T1, NK-1 receptors (Cavia porcellus, UniProt P30547).
T1 construct: isolated ring preparations, kept in an oxygenated nutrient solution, of the aortas of Pirbright-White guinea pigs; from tissue; host or cells: isolated aorta rings of Pirbright-White guinea pigs
Nature of the series: Functional NK-1 antagonism on isolated guinea pig aorta rings (inhibition of Substance P-induced relaxation). Type of series: cell-based. Conditions: half maximum inhibition of relaxation of tone caused by 0.01 μmol Substance P; phenylephrine-tonicised guinea pig aorta. As to the method: The action antagonistic to NK-1 receptors of the test substances was measured in vitro on isolated ring preparations, kept in an oxygenated nutrient solution, of the aortas of Pirbright-White guinea pigs. The inhibition by the test substances of the relaxation of tone of the aorta preparations, caused after stimulation with the NK-1 agonist Substance P, was determined.
In order to measure the contraction of the vessel muscles, the preparations were fixed to a hook, joined by a thread to a force measuring apparatus and the contractions were recorded in each case on a plotter. The aorta preparations were tonicised with phenylephrine. Then before and after the administration of the test substance the NK-1 receptors of the preparations were stimulated with 0.01 μmol Substance P, which caused relaxation of the tone. The relaxations before and after the administration of the test substance were quantified in percent. The effective concentration of the half maximum inhibition of the relaxation of the tone (=EC50) was calculated. The negative common logarithm of the EC50 value (=pEC50) was given as characteristic variable. The pEC50 value is a measurement of the functional effectiveness of the test substances on NK-1 receptors.

The subject of series [3] is basal blood pressure. Nature of the series: Vasodepressive effects based on calcium-antagonistic properties (action on basal blood pressure). The format is in vivo. Particulars: guinea pig, i.v. doses of up to 0.1 μmol/kg and p.o. doses of up to 3.2 μmol/kg. The protocol: The arterial catheter served to measure the blood pressure. The administration of Substance P and, in the case of i.v. administration, also the administration of the test substance, was effected by means of the venous access. After a 20-minute equilibration phase, 50 pmol/animal of Substance P were administered (bolus, i.v.) as a test stimulus. One minute after administration of the test stimulus, in each case the maximum drop in blood pressure induced thereby was determined as a control for the later stimulation of the NK-1 receptors by the test substance. Then the test substance was administered. For the i.v. investigation, the test substance was administered in metered doses of 0.01 to 0.1 μmol/kg. For the p.o. investigation, the test substance was administered in metered doses of 0.1 to 3.2 μmol/kg. Tylose or Tylose/ethanol was used as the vehicle for the p.o. investigations. Then, in each case the extent of the vasodepression inhibited by the test substance was measured, starting 1 minute after administration of test substance, up to 90 minutes after administration of test substance, at intervals of 15 minutes each time. The doses at which, dependent on the time, just 50% inhibition of the Substance P-induced vasodepression occurs due to the test substance were determined from these measured values as ED50 values. […]

The test system of series [4] is gerbil foot tapping. Nature of the series: Gerbil foot tapping test for CNS-permeable NK-1 antagonists. Type of series: in vivo. Conditions: doses of up to 30 mg/kg p.o.
The target of series [5] is T2, human NK-1 receptors (Homo sapiens, UniProt P25103).
T2 construct: expressed in transfected cells; host or cells: CHO cells (membrane preparation)
T2 sequence (P25103 whole entry): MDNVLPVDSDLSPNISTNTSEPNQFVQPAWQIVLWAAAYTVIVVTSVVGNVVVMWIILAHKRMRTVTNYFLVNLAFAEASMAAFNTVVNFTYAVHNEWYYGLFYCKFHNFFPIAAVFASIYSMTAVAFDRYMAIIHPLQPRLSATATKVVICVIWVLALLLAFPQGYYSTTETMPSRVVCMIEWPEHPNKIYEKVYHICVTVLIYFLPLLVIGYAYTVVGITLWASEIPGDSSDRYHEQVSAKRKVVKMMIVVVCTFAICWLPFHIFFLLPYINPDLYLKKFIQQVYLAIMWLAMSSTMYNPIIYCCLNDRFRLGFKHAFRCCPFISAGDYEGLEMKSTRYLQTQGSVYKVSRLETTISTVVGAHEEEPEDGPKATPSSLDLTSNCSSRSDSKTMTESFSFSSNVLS
Nature of the series: Binding power of the test substances to NK-1 receptors in vitro ([3H]-Substance P displacement, CHO cell membranes). Particulars: negative common logarithm of Ki calculated from IC50. As to the method:
The affinity of the test substances to human NK-1 receptors was measured in vitro. The inhibition of the binding of the physiological neurokinin (Substance P) to neurokinin-1 receptors was determined.
The receptor binding studies were performed with [^3H]-Substance P as ligand. For the binding test, different samples of a membrane preparation of CHO cells (=egg cells of the Chinese hamster, […]), which express the human NK-1 receptor (“Accession Number” of the associated nucleic acid sequence=M74290; “Accession Number” of the associated protein sequence=P25103; cf. Takeda, Y.; Chou, K. B., Takeda, J.; Sachais, B. S. and Krause, J. E; Biochemical and Biophysical Research Communications, 179(3) (1991) 1232-1240), were incubated with a solution of the marked ligand, with the incubation mixtures containing no test substance or additions of different concentrations of test substance. Then, separation of bound and free ligands was performed in each of the samples with the aid of glass-fibre filtration. The fraction remaining in the filter was washed several times with buffer solution and then the radioactivity of the fraction remaining in the filter was measured using a beta scintillation counter.
For the compounds of Examples 1 and 8 to 65, the affinity to human NK-1 receptors was determined in each case by a single measurement of the test substances in a concentration of 10^−7 mol/l.
For the compounds of Examples 2 and 4-6, that concentration which effects half maximum displacement of the bound ligand was determined as IC50 of the respective test substance. From this, the corresponding inhibition constant (Ki value) of the test substance was calculated, and was stated as the negative common logarithm of the Ki value (=pKi value). The pKi value is a measurement of the affinity of the test substances to human NK-1 receptors.

T1 sequence (P30547 whole entry): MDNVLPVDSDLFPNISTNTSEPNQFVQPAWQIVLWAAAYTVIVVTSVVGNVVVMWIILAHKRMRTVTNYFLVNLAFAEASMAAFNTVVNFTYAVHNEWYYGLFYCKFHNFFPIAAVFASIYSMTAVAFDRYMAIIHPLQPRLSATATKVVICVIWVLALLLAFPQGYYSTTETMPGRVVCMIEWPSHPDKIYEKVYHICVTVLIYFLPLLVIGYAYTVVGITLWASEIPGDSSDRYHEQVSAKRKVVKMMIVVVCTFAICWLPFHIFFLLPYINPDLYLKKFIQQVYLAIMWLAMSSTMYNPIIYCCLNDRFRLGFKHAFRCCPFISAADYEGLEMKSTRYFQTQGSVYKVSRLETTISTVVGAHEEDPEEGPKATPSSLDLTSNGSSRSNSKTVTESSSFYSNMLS

`Cl.Cl.O=C(c1cc(C(F)(F)F)cc(C(F)(F)F)c1)N1CCN(Cc2n[nH]nc2CN2CCOCC2)C[C@H]1Cc1c[nH]c2ccccc12` [(2R)-1-[3,5-bis(trifluoromethyl)benzoyl]-2-(1H-indol-3-ylmethyl)-4-{[5-(morpholinomethyl)-2H-1,2,3-triazol-4-yl]methyl}piperazine-dihydrochloride]: in series [1], the solubility in water result is given as “comparatively readily soluble in water”.

`O=C(c1cc(C(F)(F)F)cc(C(F)(F)F)c1)N1CCN(Cc2n[nH]nc2CN2CCOCC2)C[C@H]1Cc1c[nH]c2ccccc12` [Example 1, (2R)-1-[3,5-Bis(trifluoromethyl)benzoyl]-2-(1H-indol-3-ylmethyl)-4-{[5-(morpholinomethyl)-2H-1,2,3-triazol-4-yl]methyl}piperazine] gave an EC50 in series [2] of 1 nM. For the same compound, the “vasodepression (action on basal blood pressure, calcium-antagonistic side-effect)” value in series [3] is listed as “no significant vasodepression”. Further, in series [4], the “typical effects of CNS-permeable NK-1 antagonists” value is “did not exhibit any typical effects of CNS-permeable NK-1 antagonists”. For `O=C(c1cc(C(F)(F)F)cc(C(F)(F)F)c1)N1CCN(Cc2n[nH]nc2CN2CCNCC2)C[C@H]1Cc1c[nH]c2ccccc12` [Example 2], the Ki in series [5] was 3.98 nM. The compound further gave an EC50 in series [2] of 0.794 nM. Take `Cn1cc(C[C@@H]2CN(Cc3n[nH]nc3CN3CCOCC3)CCN2C(=O)c2cc(C(F)(F)F)cc(C(F)(F)F)c2)c2ccccc21` [Example 3]: a half-maximal response in series [2] (EC50) required 3.98 nM. With `CN(C)Cc1n[nH]nc1CN1CCN(C(=O)c2cc(C(F)(F)F)cc(C(F)(F)F)c2)[C@H](Cc2c[nH]c3ccccc23)C1` [Example 4, (2R)-1-[3,5-Bis(trifluoromethyl)benzoyl]-2-(1H-indol-3-ylmethyl)-4-{[5-(dimethylaminomethyl)-2H-1,2,3-triazol-4-yl]methyl}piperazine], in series [5], the Ki is 5.01 nM. In series [2], this compound showed an EC50 of 2.51 nM. On to `CCN(CC)Cc1n[nH]nc1CN1CCN(C(=O)c2cc(C(F)(F)F)cc(C(F)(F)F)c2)[C@H](Cc2c[nH]c3ccccc23)C1` [Example 5], for which the Ki in series [5] is 5.01 nM. The same compound gave an EC50 in series [2] of 2 nM. Taken in the same sequence, the figures for `CC(C)N(Cc1n[nH]nc1CN1CCN(C(=O)c2cc(C(F)(F)F)cc(C(F)(F)F)c2)[C@H](Cc2c[nH]c3ccccc23)C1)C(C)C` [Example 6] were 3.98 nM and 1.26 nM.
